The text below walks through data of paper PMC12131194, “Rational design, synthesis, and evaluation of novel polypharmacological compounds targeting NaV1.5, KV1.5, and K2P channels for atrial fibrillation” (The Journal of Biological Chemistry, 2025).

The structures appear in SMILES notation.

For the test, the system named is human atrial cardiomyocytes from patients with AF. The test is described as follows: Patch-clamp action potential recordings, atrial cardiomyocytes of atrial fibrillation patients. Type of test: cell-based. Here is the method:
A total of 10 patients with sinus rhythm (SR) (N = 5) or atrial fibrillation (AF) (N = 5) undergoing open heart surgery for coronary artery bypass grafting, heart valve replacement or heart transplantation were included in the study (Table S7). A written informed consent was given by all patients. The study protocol involving human tissue samples was approved by the responsible Ethics Committee of the Medical Faculty of Heidelberg University (Germany; S-017/2013) and was conducted in accordance with the 1964 Declaration of Helsinki.
The right atrial human tissue samples were transported in chilled Ca^2+-free solution (100 mM NaCl, 10 mM KCl, 1.2 mM KH2PO4, 5 mM MgSO4, 50 mM taurine, 5 mM 3-(N-morpholino)propanesulfonic acid (MOPS), 30 mM 2,3-butanedione monoxime and 20 mM glucose, pH 7.0 with NaOH). After dissection into small chunks, the samples were rinsed for 5 minutes with calcium-free Tyrode's solution, which was oxygenated with 100% O2 at 37 °C. The samples were then digested with collagenase type I (288 U/ml; Worthington) and protease type XXIV (5 mg/ml; Sigma-Aldrich, Steinheim, Germany) for 10 to 15 min, followed by an increase in calcium concentration to 0.2 mM. After an additional 35 min of agitation in protease-free solution, rod-shaped single cardiomyocytes were harvested. The suspension was centrifuged, and the cells were resuspended in storage (“Kraftbrühe”, KB) medium (20 mM KCl, 10 mM KH2PO4, 25 mM glucose, 40 mM D-Mannitol, 70 mM K glutamate, 10 mM β-hydroxybutyrate, 20 mM taurine, 10 mM ethylene glycol tetraacetic acid (EGTA), and 1% albumin) until usage in patch-clamp experiments.
Patch-clamp glass pipettes were fabricated from borosilicate glass (1B120F-4; World Precision Instruments). After back-filling with patch-clamp internal solution (134 mM K gluconate, 6 mM NaCl, 1.2 mM MgCl2, 1 mM Mg-ATP, 10 mM HEPES, pH 7.2 with KOH), tip resistances ranged from 5 to 10 MΩ. All experiments were carried out at room temperature under constant superfusion with patch-clamp extracellular solution containing 137 mM NaCl, 5.4 mM KCl, 1 mM MgCl2, 2 mM CaCl2, 10 mM HEPES, 10 mM glucose (pH 7.3 with NaOH). AP-recordings were performed in current clamp mode: The holding current was adjusted such that the cell’s resting membrane potential was approximately −70 mV at baseline. APs were induced by short (5 ms) depolarizing current pulses at a rate of 0.5 Hz. Data was not adjusted for potential differences caused by liquid junctions, and no leak subtraction was performed.
Data acquisition and analysis were performed using the pCLAMP10 software (Axon Instruments) and statistical analysis was done using Prism 8 (GraphPad Software). Data is presented as the mean ± standard error of the mean (SEM). Statistical comparisons were made using Dunnett’s post hoc test. A p value of < 0.05 was considered significant.
For orientation: Patch clamp records ionic current or voltage across a cell membrane.

Regarding `CCCCN(CCCC)CC(=O)Nc1ccc(OC)cc1OC` [Compound 6f, 2-(dibutylamine)-N-(2,4-dimethoxiphenyl)acetamide], the APD50 vs baseline result (AF, 6.25 μM) is “increase in ADP50 with 6.25 μM 6f was significant”. For the same molecule, for the setting “AF, 1, 6.25 and 12.5 μM”, the APD50 vs baseline entry was “concentration-dependent prolongation trend”, the APD90 vs baseline result is recorded as “concentration-dependent prolongation trend”, the “Action potential amplitude (APA) vs baseline” value is “no changes” and the “Maximal upstroke velocity vs baseline” value is “no changes”. The “Resting membrane potential (RMP)” value (AF, 1, 6.25 and 12.5 μM) was “significant concentration-dependent shift in the RMP to more negative values”.
